# According to article PMC9908843 (Angewandte Chemie (International Ed. in English), 2023):
# Key:
# [1] = molecular target: T1, TmGH1 (Thermotoga maritima, UniProt Q08638); conditions: cited from earlier work
# T1 sequence (Q08638 1-446): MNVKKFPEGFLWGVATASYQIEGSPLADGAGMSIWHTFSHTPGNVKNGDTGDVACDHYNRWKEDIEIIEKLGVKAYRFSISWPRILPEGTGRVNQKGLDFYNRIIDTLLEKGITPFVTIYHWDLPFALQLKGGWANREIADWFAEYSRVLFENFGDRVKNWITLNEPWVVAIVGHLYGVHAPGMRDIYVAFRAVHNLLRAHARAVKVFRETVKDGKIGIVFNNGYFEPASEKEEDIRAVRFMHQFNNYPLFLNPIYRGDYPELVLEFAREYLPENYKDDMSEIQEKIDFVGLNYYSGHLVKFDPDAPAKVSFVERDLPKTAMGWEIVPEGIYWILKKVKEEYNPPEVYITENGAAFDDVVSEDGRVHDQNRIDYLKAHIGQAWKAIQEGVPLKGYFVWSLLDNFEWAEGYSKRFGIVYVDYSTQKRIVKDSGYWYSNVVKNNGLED
# [2] = molecular target: T2, SsGH1 (Saccharolobus solfataricus, UniProt P22498); experiment: SsGH1 inhibition; assay type: biochemical, Sulfolobus solfataricus
# T2 sequence (P22498 1-489): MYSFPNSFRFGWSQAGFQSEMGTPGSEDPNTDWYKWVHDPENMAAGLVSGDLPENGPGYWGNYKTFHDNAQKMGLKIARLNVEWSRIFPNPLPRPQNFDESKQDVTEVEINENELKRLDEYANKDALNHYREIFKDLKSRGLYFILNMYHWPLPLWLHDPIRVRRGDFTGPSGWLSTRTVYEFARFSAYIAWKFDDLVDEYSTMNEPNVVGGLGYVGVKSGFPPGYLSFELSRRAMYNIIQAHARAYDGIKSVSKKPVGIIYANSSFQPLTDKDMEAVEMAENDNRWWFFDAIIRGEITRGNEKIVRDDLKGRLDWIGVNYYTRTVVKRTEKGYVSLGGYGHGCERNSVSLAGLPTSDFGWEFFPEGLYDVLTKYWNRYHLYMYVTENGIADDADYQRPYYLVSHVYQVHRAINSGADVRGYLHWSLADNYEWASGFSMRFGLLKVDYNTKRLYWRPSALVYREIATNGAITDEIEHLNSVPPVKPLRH
# [3] = molecular target: T1, TmGH1; experiment: TmGH1 inhibition; assay type: biochemical
# [4] = system: TmGH1, SsGH1 and BtMan2A; assay type: biochemical; conditions: 3 vs 4 (TmGH1, SsGH1), 7 vs 8 (BtMan2A)
# [5] = molecular target: T3, BtMan2A (Bacteroides thetaiotaomicron, UniProt Q8AAK6); experiment: BtMan2A inhibition; assay type: biochemical; conditions: ratio of Ki for BtMan2A
# T3 sequence (Q8AAK6 26-864): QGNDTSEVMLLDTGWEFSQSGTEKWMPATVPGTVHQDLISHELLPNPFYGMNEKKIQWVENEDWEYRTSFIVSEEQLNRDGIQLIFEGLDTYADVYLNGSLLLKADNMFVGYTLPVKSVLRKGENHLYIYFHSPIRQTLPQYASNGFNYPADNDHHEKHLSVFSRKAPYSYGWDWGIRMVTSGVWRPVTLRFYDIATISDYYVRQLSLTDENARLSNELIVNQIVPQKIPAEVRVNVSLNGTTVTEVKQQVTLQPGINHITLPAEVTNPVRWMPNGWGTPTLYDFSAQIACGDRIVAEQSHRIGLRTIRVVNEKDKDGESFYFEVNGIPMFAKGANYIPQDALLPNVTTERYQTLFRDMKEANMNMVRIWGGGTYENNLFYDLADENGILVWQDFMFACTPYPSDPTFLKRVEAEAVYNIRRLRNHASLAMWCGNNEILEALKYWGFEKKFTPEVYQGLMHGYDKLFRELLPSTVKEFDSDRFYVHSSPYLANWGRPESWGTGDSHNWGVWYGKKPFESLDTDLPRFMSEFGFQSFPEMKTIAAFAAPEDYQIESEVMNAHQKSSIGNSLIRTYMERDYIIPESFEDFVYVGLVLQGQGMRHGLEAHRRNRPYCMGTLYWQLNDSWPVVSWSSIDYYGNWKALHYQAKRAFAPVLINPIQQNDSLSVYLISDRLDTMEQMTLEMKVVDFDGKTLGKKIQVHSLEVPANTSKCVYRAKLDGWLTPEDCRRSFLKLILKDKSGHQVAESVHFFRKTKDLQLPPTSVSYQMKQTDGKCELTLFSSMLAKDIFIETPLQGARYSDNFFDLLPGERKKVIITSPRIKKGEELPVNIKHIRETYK
Ki [2] [µM],Ki [3] [µM],Fold better inhibitor than the isosteric compound with the gt conformation [4],Fold greater potency over 1-deoxymannojirimycin 6 [5] [fold],Compound,Fold better inhibitor than 1-deoxynojirimycin 2 [1]
17 ± 1,16 ± 2,between six‐ and ten‐fold,,C[C@H](O)[C@H]1NC[C@H](O)[C@@H](O)[C@@H]1O.Cl [Compound 3],
105 ± 10,135 ± 11,,,C[C@@H](O)[C@H]1NC[C@H](O)[C@@H](O)[C@@H]1O [Compound 4],
,,between six‐ and ten‐fold,27,C[C@H](O)[C@H]1NC[C@@H](O)[C@@H](O)[C@@H]1O.Cl [Compound 7],

# Further lines, the compound ahead of its results:
Compound,Ki [2] [µM],Ki [3] [µM],Fold better inhibitor than the isosteric compound with the gt conformation [4],Fold greater potency over 1-deoxymannojirimycin 6 [5] [fold],Fold better inhibitor than 1-deoxynojirimycin 2 [1]
"O[C@H]1[C@H](O)[C@@H](O)CN2CC[C@H](O)[C@H]12 [Compound 1, castanospermine]",,,,,four‐fold
"OC[C@H]1NC[C@H](O)[C@@H](O)[C@@H]1O [Compound 2, 1‐deoxynojirimycin, reference compound]",3.1 ± 0.2,5.4 ± 0.5,,,
